Data published in article PMC5218480 (PLoS ONE, 2017).

System: MV-4-11 cells
Test: Gene expression microarray analysis (Affymetrix PrimeView) and GSEA
Type: cell-based, human
Parameters: RFU PODN (11730768_x_at) / Fold change /veh PODN (11730768_x_at) / RFU LINC00158 (11744669_a_at) / Fold change /veh LINC00158 (11744669_a_at) / RFU DUSP10 (11751237_a_at) / Fold change /veh DUSP10 (11751237_a_at) / RFU ID3 (11757404_x_at) / Fold change /veh ID3 (11757404_x_at) / RFU PLEKHG5 (11737974_s_at) / Fold change /veh PLEKHG5 (11737974_s_at) / RFU LRRC4B (11730491_at) / Fold change /veh LRRC4B (11730491_at) / RFU GIMAP4 (11747438_a_at) / Fold change /veh GIMAP4 (11747438_a_at) / RFU KRT8 (11758183_x_at) / Fold change /veh KRT8 (11758183_x_at) / RFU CNN1 (11734310_a_at) / Fold change /veh CNN1 (11734310_a_at) / RFU VPS37D (11726825_at) / Fold change /veh VPS37D (11726825_at) / RFU C10orf10 (11716522_x_at) / Fold change /veh C10orf10 (11716522_x_at) / RFU KIR2DL2 /// KIR2DL4 /// KIR2DL5A /// KIR2DL5B /// KIR2DS1 /// KIR2DS2 /// KIR2DS3 /// KIR2DS4 /// KIR3DL3 /// KIR3DL3 /// KIR3DS1 (11738374_at) / Fold change /veh KIR2DL2 /// KIR2DL4 /// KIR2DL5A /// KIR2DL5B /// KIR2DS1 /// KIR2DS2 /// KIR2DS3 /// KIR2DS4 /// KIR3DL3 /// KIR3DL3 /// KIR3DS1 (11738374_at) / RFU C1QL1 (11718748_at) / Fold change /veh C1QL1 (11718748_at) / RFU TMPRSS4 (11747572_a_at) / Fold change /veh TMPRSS4 (11747572_a_at) / RFU HAMP (11756126_x_at) / Fold change /veh HAMP (11756126_x_at) / RFU RNFT2 (11725882_a_at) / Fold change /veh RNFT2 (11725882_a_at) / RFU NR4A2 (11747474_a_at) / Fold change /veh NR4A2 (11747474_a_at) / RFU ABCC12 (11746883_a_at) / Fold change /veh ABCC12 (11746883_a_at) / RFU TMEM136 (11760407_x_at) / Fold change /veh TMEM136 (11760407_x_at) / RFU CLDN22 /// WWC2 (11732394_at) / Fold change /veh CLDN22 /// WWC2 (11732394_at) / RFU HLA-DPB1 (11760878_x_at) / Fold change /veh HLA-DPB1 (11760878_x_at) / RFU SPINT1 (11716480_a_at) / Fold change /veh SPINT1 (11716480_a_at) / RFU GAP43 (11754022_s_at) / Fold change /veh GAP43 (11754022_s_at) / RFU A4GNT (11735810_at) / Fold change /veh A4GNT (11735810_at) / RFU PRB3 (11715151_x_at) / Fold change /veh PRB3 (11715151_x_at) / RFU TUBB4B (11761932_at) / Fold change /veh TUBB4B (11761932_at) / RFU CAPN14 (11732068_a_at) / Fold change /veh CAPN14 (11732068_a_at) / RFU TMCC2 (11721928_a_at) / Fold change /veh TMCC2 (11721928_a_at) / RFU IRGQ (11745062_a_at) / Fold change /veh IRGQ (11745062_a_at) / RFU FAM174B (11720279_a_at) / Fold change /veh FAM174B (11720279_a_at) / RFU TMPRSS4 (11748680_a_at) / Fold change /veh TMPRSS4 (11748680_a_at) / RFU FAM212B (11763350_a_at) / Fold change /veh FAM212B (11763350_a_at) / RFU PLEKHG5 (11743358_a_at) / Fold change /veh PLEKHG5 (11743358_a_at) / RFU ZSCAN30 (11745921_a_at) / Fold change /veh ZSCAN30 (11745921_a_at) / RFU CMKLR1 (11741424_a_at) / Fold change /veh CMKLR1 (11741424_a_at) / RFU LOC101060620 /// MAPK8IP1 (11723275_at) / Fold change /veh LOC101060620 /// MAPK8IP1 (11723275_at) / RFU SPTSSB (11747773_x_at) / Fold change /veh SPTSSB (11747773_x_at) / RFU PRSS12 (11739890_at) / Fold change /veh PRSS12 (11739890_at) / RFU BIN1 (11741810_x_at) / Fold change /veh BIN1 (11741810_x_at) / RFU WNT11 (11732464_a_at) / Fold change /veh WNT11 (11732464_a_at) / RFU C10orf10 (11716521_a_at) / Fold change /veh C10orf10 (11716521_a_at) / RFU C5orf56 (11738089_at) / Fold change /veh C5orf56 (11738089_at) / RFU CYB561 (11721691_x_at) / Fold change /veh CYB561 (11721691_x_at) / RFU ANKRD19P (11752326_a_at) / Fold change /veh ANKRD19P (11752326_a_at) / RFU OR2T12 /// OR2T33 /// OR2T8 (11738714_s_at) / Fold change /veh OR2T12 /// OR2T33 /// OR2T8 (11738714_s_at) / RFU VCAN (11748164_a_at) / Fold change /veh VCAN (11748164_a_at) / RFU JSRP1 (11732532_at) / Fold change /veh JSRP1 (11732532_at) / RFU KRTAP10-11 (11738290_x_at) / Fold change /veh KRTAP10-11 (11738290_x_at) / RFU MYO3A (11730013_a_at) / Fold change /veh MYO3A (11730013_a_at) / RFU EBF3 (11725865_a_at) / Fold change /veh EBF3 (11725865_a_at) / RFU CAMK2N1 (11719241_x_at) / Fold change /veh CAMK2N1 (11719241_x_at) / RFU C5orf56 (11738088_a_at) / Fold change /veh C5orf56 (11738088_a_at) / RFU OLFML3 (11715873_a_at) / Fold change /veh OLFML3 (11715873_a_at) / RFU LOC100653217 /// NTM (11731650_a_at) / Fold change /veh LOC100653217 /// NTM (11731650_a_at) / RFU MAPK11 (11762145_a_at) / Fold change /veh MAPK11 (11762145_a_at) / RFU FIZ1 (11724087_x_at) / Fold change /veh FIZ1 (11724087_x_at) / RFU OASL (11726364_x_at) / Fold change /veh OASL (11726364_x_at) / RFU SOX15 (11748057_x_at) / Fold change /veh SOX15 (11748057_x_at) / RFU CD79A (11719716_a_at) / Fold change /veh CD79A (11719716_a_at) / RFU HIST1H1D (11736915_at) / Fold change /veh HIST1H1D (11736915_at) / RFU CASKIN2 (11723855_a_at) / Fold change /veh CASKIN2 (11723855_a_at) / RFU LOC730098 (11760151_x_at) / Fold change /veh LOC730098 (11760151_x_at) / RFU OR4N2 (11742367_at) / Fold change /veh OR4N2 (11742367_at) / RFU PRRT2 (11749266_a_at) / Fold change /veh PRRT2 (11749266_a_at) / RFU SNX32 (11753110_a_at) / Fold change /veh SNX32 (11753110_a_at) / RFU CDHR5 (11726645_a_at) / Fold change /veh CDHR5 (11726645_a_at) / RFU RCAN1 (11760418_a_at) / Fold change /veh RCAN1 (11760418_a_at) / RFU FAM167A (11723789_a_at) / Fold change /veh FAM167A (11723789_a_at) / RFU FAM26E (11764081_at) / Fold change /veh FAM26E (11764081_at) / RFU ISYNA1 (11749810_s_at) / Fold change /veh ISYNA1 (11749810_s_at) / RFU ACY1 (11761880_at) / Fold change /veh ACY1 (11761880_at) / RFU 11764098_at / Fold change /veh 11764098_at / RFU SAMD14 (11745864_x_at) / Fold change /veh SAMD14 (11745864_x_at) / RFU NPB (11741838_a_at) / Fold change /veh NPB (11741838_a_at) / RFU TMPRSS6 (11731388_a_at) / Fold change /veh TMPRSS6 (11731388_a_at) / RFU KRTAP10-2 (11738614_at) / Fold change /veh KRTAP10-2 (11738614_at) / RFU ARHGAP8 /// PRR5-ARHGAP8 (11727945_x_at) / Fold change /veh ARHGAP8 /// PRR5-ARHGAP8 (11727945_x_at) / RFU KRTAP5-7 /// NADSYN1 (11734609_at) / Fold change /veh KRTAP5-7 /// NADSYN1 (11734609_at) / RFU RASL12 (11751679_a_at) / Fold change /veh RASL12 (11751679_a_at) / RFU CDKN2B (11736163_a_at) / Fold change /veh CDKN2B (11736163_a_at) / RFU PRF1 (11729649_at) / Fold change /veh PRF1 (11729649_at) / RFU, ZNF638 /// ZNF638-IT1 / Fold change vs veh, ZNF638 /// ZNF638-IT1 / RFU, PANK3 / Fold change vs veh, PANK3 / RFU, SH3YL1 / Fold change vs veh, SH3YL1 / RFU, ZEB2 / Fold change vs veh, ZEB2 / RFU, NRIP1 / Fold change vs veh, NRIP1 / RFU, PTTG1IP / Fold change vs veh, PTTG1IP / RFU, CAPN2 / Fold change vs veh, CAPN2 / RFU, MED14 / Fold change vs veh, MED14 / RFU, SNORA58 / Fold change vs veh, SNORA58 / RFU, C1orf63 / Fold change vs veh, C1orf63 / RFU, LRRFIP1 / Fold change vs veh, LRRFIP1 / RFU, NDUFAF7 / Fold change vs veh, NDUFAF7 / RFU, SLC12A2 / Fold change vs veh, SLC12A2 / RFU, IBTK / Fold change vs veh, IBTK / RFU, ESF1 / Fold change vs veh, ESF1 / Fold change vs veh, TMEM50B / RFU, TAOK1 / Fold change vs veh, TAOK1 / RFU, ACBD3 / Fold change vs veh, ACBD3 / RFU, TMA16 / Fold change vs veh, TMA16 / RFU, RWDD3 / Fold change vs veh, RWDD3 / RFU, BCAT1 / Fold change vs veh, BCAT1 / RFU, EDEM3 / Fold change vs veh, EDEM3 / RFU, TMEM33 / Fold change vs veh, TMEM33 / RFU, WDR75 / Fold change vs veh, WDR75 / RFU, AHCTF1 / Fold change vs veh, AHCTF1 / RFU, TFRC / Fold change vs veh, TFRC / RFU, ZDHHC17 / Fold change vs veh, ZDHHC17 / RFU, NOM1 / Fold change vs veh, NOM1 / RFU, ARL8B / Fold change vs veh, ARL8B / RFU, ZBTB11 / Fold change vs veh, ZBTB11 / RFU, TAMM41 / Fold change vs veh, TAMM41 / RFU, KIAA1704 /// LOC100996395 / Fold change vs veh, KIAA1704 /// LOC100996395 / RFU, ING1 / Fold change vs veh, ING1 / RFU, TRMT61B / Fold change vs veh, TRMT61B / RFU, FUBP3 / Fold change vs veh, FUBP3 / RFU, TP53 / Fold change vs veh, TP53 / RFU, TNKS2 / Fold change vs veh, TNKS2 / RFU, ZFP14 / Fold change vs veh, ZFP14 / RFU, ACTR2 / Fold change vs veh, ACTR2 / RFU, PPP3R1 / Fold change vs veh, PPP3R1 / RFU, PIK3R1 / Fold change vs veh, PIK3R1 / RFU, HNRNPA1 / Fold change vs veh, HNRNPA1 / RFU, RNF170 / Fold change vs veh, RNF170 / RFU, ZNF28 / Fold change vs veh, ZNF28 / RFU, RNGTT / Fold change vs veh, RNGTT / RFU, OGT / Fold change vs veh, OGT / RFU, BRD1 / Fold change vs veh, BRD1 / RFU, MARS / Fold change vs veh, MARS / RFU, ZNF655 / Fold change vs veh, ZNF655 / RFU, FAHD1 / Fold change vs veh, FAHD1 / RFU, BDP1 / Fold change vs veh, BDP1 / RFU, LRRCC1 / Fold change vs veh, LRRCC1 / RFU, ARID1A / Fold change vs veh, ARID1A / RFU, ZNF146 / Fold change vs veh, ZNF146 / RFU, ZNF330 / Fold change vs veh, ZNF330 / RFU, GPN3 / Fold change vs veh, GPN3 / RFU, C9orf123 / Fold change vs veh, C9orf123 / RFU, N4BP2L2 / Fold change vs veh, N4BP2L2 / RFU, ARFIP1 / Fold change vs veh, ARFIP1 / RFU, FAM179B / Fold change vs veh, FAM179B / RFU, BCL10 / Fold change vs veh, BCL10 / RFU, UHRF1BP1L / Fold change vs veh, UHRF1BP1L / RFU, BET1 / Fold change vs veh, BET1 / RFU, CNOT2 / Fold change vs veh, CNOT2 / RFU, ZNF268 / Fold change vs veh, ZNF268 / Fold change vs veh, ZNF507 / RFU, DGCR2 / Fold change vs veh, DGCR2 / RFU, WDSUB1 / Fold change vs veh, WDSUB1 / Fold change vs veh, HSP90B1 /// MIR3652 / RFU, ADSS / Fold change vs veh, ADSS / RFU, GK / Fold change vs veh, GK / RFU, ZNF148 / Fold change vs veh, ZNF148 / RFU, TAF9 / Fold change vs veh, TAF9 / RFU, SLC1A5 / Fold change vs veh, SLC1A5 / RFU, SLMO2 / Fold change vs veh, SLMO2 / RFU, ABCC4 / Fold change vs veh, ABCC4 / RFU, LOC101060439 /// RAP1B / Fold change vs veh, LOC101060439 /// RAP1B / RFU, RFX7 / Fold change vs veh, RFX7 / RFU, GTPBP10 / Fold change vs veh, GTPBP10 / RFU, CNEP1R1 / Fold change vs veh, CNEP1R1 / RFU, BIVM-ERCC5 /// ERCC5 / Fold change vs veh, BIVM-ERCC5 /// ERCC5 / RFU, ILF3 / Fold change vs veh, ILF3 / RFU 11762660_at / Fold change /veh 11762660_at / RFU VCAN (11757783_s_at) / Fold change /veh VCAN (11757783_s_at) / RFU DDX43 (11728927_at) / Fold change /veh DDX43 (11728927_at) / RFU KRT8 (11758188_x_at) / Fold change /veh KRT8 (11758188_x_at) / RFU NKD1 (11759106_at) / Fold change /veh NKD1 (11759106_at) / RFU SRD5A1 (11742802_a_at) / Fold change /veh SRD5A1 (11742802_a_at) / RFU TPSAB1 /// TPSB2 (11721975_s_at) / Fold change /veh TPSAB1 /// TPSB2 (11721975_s_at) / RFU GSTM3 (11746129_a_at) / Fold change /veh GSTM3 (11746129_a_at) / RFU IL23R (11737362_x_at) / Fold change /veh IL23R (11737362_x_at) / RFU TMEM51 (11727254_a_at) / Fold change /veh TMEM51 (11727254_a_at) / RFU PIWIL2 (11732686_x_at) / Fold change /veh PIWIL2 (11732686_x_at) / RFU ORM1 (11744905_x_at) / Fold change /veh ORM1 (11744905_x_at) / RFU CCDC152 (11743942_at) / Fold change /veh CCDC152 (11743942_at) / RFU ECM1 (11717891_a_at) / Fold change /veh ECM1 (11717891_a_at) / RFU IL23R (11748794_a_at) / Fold change /veh IL23R (11748794_a_at) / RFU TNFAIP8L3 (11732012_x_at) / Fold change /veh TNFAIP8L3 (11732012_x_at) / RFU MBOAT4 (11741988_at) / Fold change /veh MBOAT4 (11741988_at) / RFU 11764193_at / Fold change /veh 11764193_at / RFU TMEM53 (11763286_at) / Fold change /veh TMEM53 (11763286_at) / RFU MAGEB2 (11727129_at) / Fold change /veh MAGEB2 (11727129_at) / RFU TMEM200A (11744735_a_at) / Fold change /veh TMEM200A (11744735_a_at) / RFU CCDC152 (11751479_a_at) / Fold change /veh CCDC152 (11751479_a_at) / RFU FAM211A (11726209_a_at) / Fold change /veh FAM211A (11726209_a_at) / RFU RGS16 (11746705_a_at) / Fold change /veh RGS16 (11746705_a_at) / RFU VCAN (11755009_s_at) / Fold change /veh VCAN (11755009_s_at) / RFU RHOB (11743442_s_at) / Fold change /veh RHOB (11743442_s_at) / RFU RGS16 (11720943_a_at) / Fold change /veh RGS16 (11720943_a_at) / RFU RGS16 (11720944_at) / Fold change /veh RGS16 (11720944_at) / RFU, VPS4B / Fold change vs veh, VPS4B / RFU, CREB1 / Fold change vs veh, CREB1 / RFU, DNAJC13 / Fold change vs veh, DNAJC13 / RFU, GNAQ / Fold change vs veh, GNAQ / RFU, CDK5R1 / Fold change vs veh, CDK5R1 / RFU, ZRANB3 / Fold change vs veh, ZRANB3 / RFU, CUL4A / Fold change vs veh, CUL4A / RFU, CCNY / Fold change vs veh, CCNY / RFU, UFL1 / Fold change vs veh, UFL1 / RFU, COG3 / Fold change vs veh, COG3 / RFU, DIAPH2 / Fold change vs veh, DIAPH2 / RFU, SKA2 / Fold change vs veh, SKA2 / RFU, AFF3 / Fold change vs veh, AFF3 / RFU, LMF1 / Fold change vs veh, LMF1 / RFU, IPO11 / Fold change vs veh, IPO11 / RFU, DFFB / Fold change vs veh, DFFB / RFU, FOXP1 / Fold change vs veh, FOXP1 / RFU, CARD8 / Fold change vs veh, CARD8 / RFU, STRN3 / Fold change vs veh, STRN3 / RFU, ADK / Fold change vs veh, ADK / RFU, RASSF2 / Fold change vs veh, RASSF2 / RFU, WIPF1 / Fold change vs veh, WIPF1 / RFU, LARP1B / Fold change vs veh, LARP1B / RFU, RASA1 / Fold change vs veh, RASA1 / RFU, RB1 / Fold change vs veh, RB1 / RFU, PPFIA1 / Fold change vs veh, PPFIA1 / RFU, MAT2A / Fold change vs veh, MAT2A / RFU, CCT5 / Fold change vs veh, CCT5 / RFU, WDR92 / Fold change vs veh, WDR92 / RFU, CUX1 / Fold change vs veh, CUX1 / RFU, TTC7A / Fold change vs veh, TTC7A / RFU, TMEM135 / Fold change vs veh, TMEM135 / RFU, DEPTOR / Fold change vs veh, DEPTOR / RFU, CPM / Fold change vs veh, CPM / RFU, DNAJB6 / Fold change vs veh, DNAJB6 / RFU, CACNA2D3 / Fold change vs veh, CACNA2D3 / RFU, DTX4 / Fold change vs veh, DTX4 / RFU, TFCP2 / Fold change vs veh, TFCP2 / RFU, GMCL1 /// GMCL1P1 / Fold change vs veh, GMCL1 /// GMCL1P1 / RFU, AEBP2 / Fold change vs veh, AEBP2 / RFU, SNHG1 /// SNORD22 /// SNORD25 /// SNORD26 /// SNORD27 /// SNORD28 /// SNORD29 /// SNORD31 / Fold change vs veh, SNHG1 /// SNORD22 /// SNORD25 /// SNORD26 /// SNORD27 /// SNORD28 /// SNORD29 /// SNORD31 / Fold change (Aza/veh), C12orf56 (ProbeSet 11735607_a_at) / Fold change (ACY-1035/veh), C12orf56 (ProbeSet 11735607_a_at) / Fold change (Aza/veh), FGFR1OP (ProbeSet 11751329_s_at) / Fold change (ACY-1035/veh), FGFR1OP (ProbeSet 11751329_s_at) / Fold change (Aza/veh), VPS36 (ProbeSet 11739960_a_at) / Fold change (ACY-1035/veh), VPS36 (ProbeSet 11739960_a_at) / RFU SYPL1 (11715823_x_at) / Fold change /veh SYPL1 (11715823_x_at) / RFU IGFBP7 (11715501_s_at) / Fold change /veh IGFBP7 (11715501_s_at) / RFU REEP3 (11722064_at) / Fold change /veh REEP3 (11722064_at) / RFU IGLL1 (11728026_x_at) / Fold change /veh IGLL1 (11728026_x_at): dose or concentration left out as unconfirmed
Conditions: ProbeSet 11731610_x_at; LIST B

Q: For Nc1ccc(-c2cccs2)cc1NC(=O)c1ccc2c(c1)cc(C1CC1)n2CCN1CCOCC1 [ACY-1035], which “Fold change vs veh, KIAA1704 /// LOC100996395” value is on record?
A: 0.91
